Reference: PubChem BioAssay AID330 (DTP/NCI, 2004)
Several values for one entry are separate records, joined by “and”; a condition that tells them apart may be missing. Identical values can stand only once. Toxic doses and inconclusive results are not listed. The calls were made as follows: active = survival T/C of 150% or more; inactive = T/C below 125% in these data.

System: P388 leukemia ip, CD2F1 mice, survival T/C
Assay: NCI In Vivo Anticancer Drug Screen. Data for tumor model P388 Leukemia (intraperitoneal) in CD2F1 (CDF1) mice
Details: endpoint: median survival time, higher = longer survival
Summary of the method: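 Mice carrying the transplanted tumor received test compound or vehicle. Survival was recorded in each group, and the value is the treated-group measurement divided by that of the vehicle-treated control group.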

[1] = dose: 50.0 mg/kg/injection, schedule: Q01DX005 (ip), vehicle: saline
[2] = dose: 100.0 mg/kg/injection, schedule: Q01DX005 (ip), vehicle: saline
[3] = dose: 200.0 mg/kg/injection, schedule: Q01DX005 (ip), vehicle: saline
[4] = dose: 25.0 mg/kg/injection, schedule: Q01DX009 (ip), vehicle: Klucel (hydroxypropylcellulose) (HPC)
[5] = dose: 50.0 mg/kg/injection, schedule: Q01DX009 (ip), vehicle: Klucel (hydroxypropylcellulose) (HPC)
[6] = dose: 50.0 mg/kg/injection, schedule: Q01DX009 (ip), vehicle: saline with Tween-80
[7] = dose: 100.0 mg/kg/injection, schedule: Q01DX009 (ip), vehicle: Klucel (hydroxypropylcellulose) (HPC)
[8] = dose: 100.0 mg/kg/injection, schedule: Q01DX009 (ip), vehicle: saline with Tween-80
[9] = dose: 200.0 mg/kg/injection, schedule: Q01DX009 (ip), vehicle: Klucel (hydroxypropylcellulose) (HPC)
[10] = dose: 100.0 mg/kg/injection, schedule: Q04DX002 (ip), vehicle: Klucel (hydroxypropylcellulose) (HPC)
[11] = dose: 200.0 mg/kg/injection, schedule: Q04DX002 (ip), vehicle: Klucel (hydroxypropylcellulose) (HPC)
[12] = dose: 50.0 mg/kg/injection, schedule: Q01DX005 (ip), vehicle: Klucel (hydroxypropylcellulose) (HPC)
[13] = dose: 100.0 mg/kg/injection, schedule: Q01DX005 (ip), vehicle: Klucel (hydroxypropylcellulose) (HPC)
[14] = dose: 200.0 mg/kg/injection, schedule: Q01DX005 (ip), vehicle: Klucel (hydroxypropylcellulose) (HPC)
[15] = dose: 60.0 mg/kg/injection, schedule: Q01DX005 (ip), vehicle: saline
[16] = dose: 120.0 mg/kg/injection, schedule: Q01DX005 (ip), vehicle: saline
[17] = dose: 240.0 mg/kg/injection, schedule: Q01DX005 (ip), vehicle: saline
[18] = dose: 60.0 mg/kg/injection, schedule: Q01DX005 (ip), vehicle: Klucel (hydroxypropylcellulose) (HPC)
[19] = dose: 120.0 mg/kg/injection, schedule: Q01DX005 (ip), vehicle: Klucel (hydroxypropylcellulose) (HPC)
[20] = dose: 240.0 mg/kg/injection, schedule: Q01DX005 (ip), vehicle: Klucel (hydroxypropylcellulose) (HPC)

Measured: T/C

NC1=NC(CNC(=O)c2cccc([N+](=O)[O-])c2)N(c2cccc(Cl)c2)C(N)=N1 (stereo unspecified)
inactive: [1] 100 % of control | [2] 107 % of control | [3] 109 % of control

CC/C(=C(\CC)c1ccc(OC)cc1)c1ccc(OC)cc1
inactive: [4] 107 % of control | [5] 105 % of control | [6] 102 % of control | [7] 106 % of control | [8] 98 % of control | [9] 97 % of control

NC(N)=NS(=O)(=O)c1ccccc1[N+](=O)[O-]
inactive: dose: 7.5 mg/kg/injection, schedule: Q01DX009 (ip), vehicle: saline with Tween-80 106 % of control | dose: 15.0 mg/kg/injection, schedule: Q01DX009 (ip), vehicle: saline with Tween-80 113 % of control | dose: 30.0 mg/kg/injection, schedule: Q01DX009 (ip), vehicle: saline with Tween-80 120 % of control

OC1(c2ccccc2)CCN(c2c3ccccc3nc3ccccc23)CC1
inactive: [10] 118 % of control | [11] 119 % of control

O=Cc1cc(/C=N/Nc2ccccc2C(=O)O)nc2[nH]c(=O)ccc12
inactive: [10] 107 % of control | [11] 102 % of control | dose: 400.0 mg/kg/injection, schedule: Q04DX002 (ip), vehicle: Klucel (hydroxypropylcellulose) (HPC) 101 % of control

O=c1[nH]c2cc(Cl)ccc2nc1/C=C(\O)c1ccc2ccccc2c1
inactive: dose: 60.0 mg/kg/injection, schedule: Q01DX005 (ip), vehicle: saline with Tween-80 89 % of control | dose: 120.0 mg/kg/injection, schedule: Q01DX005 (ip), vehicle: saline with Tween-80 89 % of control | dose: 240.0 mg/kg/injection, schedule: Q01DX005 (ip), vehicle: saline with Tween-80 110 % of control

c1ccc2c(-c3ccc(N4CCOCC4)cc3)c3ccc4ccccc4c3cc2c1
inactive: [12] 91 % of control | [13] 92 % of control | [14] 99 % of control

CN(C)CCO[Si](C)(C)C[Si](C)(C)OCCN(C)C
inactive: [15] 107 % of control | [16] 102 % of control | [17] 108 % of control

Cc1ccc(C(O)(c2ccc(C)cc2)C2(O)CCN(C)CC2)cc1
inactive: [12] 107 % of control | [13] 97 % of control | [14] 92 % of control

CC(NS(=O)(=O)c1ccccc1)c1ccccc1 (stereo unspecified)
inactive: dose: 100.0 mg/kg/injection, schedule: Q04DX003 (ip), vehicle: Klucel (hydroxypropylcellulose) (HPC) 100 % of control | dose: 200.0 mg/kg/injection, schedule: Q04DX003 (ip), vehicle: Klucel (hydroxypropylcellulose) (HPC) 106 % of control | dose: 400.0 mg/kg/injection, schedule: Q04DX003 (ip), vehicle: Klucel (hydroxypropylcellulose) (HPC) 113 % of control

COC1OC(CO)C(O)C(O)C1O (stereo unspecified)
inactive: dose: 50.0 mg/kg/injection, schedule: Q01DX009 (ip), vehicle: saline 100 % of control | dose: 100.0 mg/kg/injection, schedule: Q01DX009 (ip), vehicle: saline 94 % of control and 104 % of control | dose: 100.0 mg/kg/injection, schedule: Q04DX003 (ip), vehicle: saline 109 % of control | dose: 200.0 mg/kg/injection, schedule: Q01DX009 (ip), vehicle: saline 101 % of control and 100 % of control | dose: 200.0 mg/kg/injection, schedule: Q04DX003 (ip), vehicle: saline 95 % of control | dose: 400.0 mg/kg/injection, schedule: Q01DX009 (ip), vehicle: saline 106 % of control and 101 % of control | dose: 400.0 mg/kg/injection, schedule: Q04DX003 (ip), vehicle: saline 95 % of control

CC(=O)OC1C=CC(=O)C1(O)CO (stereo unspecified)
inactive: dose: 2.0 mg/kg/injection, schedule: Q01DX009 (ip), vehicle: saline 97 % of control | dose: 4.0 mg/kg/injection, schedule: Q01DX009 (ip), vehicle: saline 98 % of control | dose: 8.0 mg/kg/injection, schedule: Q01DX009 (ip), vehicle: saline 118 % of control | dose: 16.0 mg/kg/injection, schedule: Q01DX009 (ip), vehicle: saline 116 % of control

O=c1[nH]c2ccccc2c(N=Cc2ccccc2)c1-c1ccccc1
inactive: [18] 96 % of control | [19] 93 % of control | [20] 98 % of control

C/C(=C\c1ccccc1)C(=O)C(CN(C)C)CN(C)C
inactive: dose: 1.87 mg/kg/injection, schedule: Q01DX005 (ip), vehicle: saline 111 % of control | dose: 3.75 mg/kg/injection, schedule: Q01DX005 (ip), vehicle: saline 113 % of control | dose: 7.5 mg/kg/injection, schedule: Q01DX005 (ip), vehicle: saline 100 % of control and 113 % of control

Cc1c(Cl)cnc(N)c1Cl (tested in a mixture with another compound)
inactive: dose: 25.0 mg/kg/injection, schedule: Q01DX009 (ip), vehicle: saline with Tween-80 93 % of control | [6] 90 % of control | [8] 93 % of control | dose: 200.0 mg/kg/injection, schedule: Q01DX009 (ip), vehicle: saline with Tween-80 95 % of control

Cl/C(=C\c1ccccc1)c1nc2ccccc2nc1Cl
inactive: [5] 96 % of control | [7] 89 % of control | [9] 92 % of control

CCOC(=O)C#Cc1cccc(C#CC(=O)OCC)c1
inactive: dose: 50.0 mg/kg/injection, schedule: Q01DX001 (ip), vehicle: saline with Tween-80 98 % of control | dose: 100.0 mg/kg/injection, schedule: Q01DX001 (ip), vehicle: saline with Tween-80 99 % of control and 118 % of control | dose: 200.0 mg/kg/injection, schedule: Q01DX001 (ip), vehicle: saline with Tween-80 120 % of control

Cc1ccccc1NC(=O)Cc1ccccc1
inactive: dose: 6.25 mg/kg/injection, schedule: Q01DX009 (ip), vehicle: Klucel (hydroxypropylcellulose) (HPC) 99 % of control | dose: 12.5 mg/kg/injection, schedule: Q01DX009 (ip), vehicle: Klucel (hydroxypropylcellulose) (HPC) 104 % of control | [4] 94 % of control | [5] 108 % of control | [7] 95 % of control

CN1CC(C(N)=O)=CC(C(N)=O)C1 (stereo unspecified)
inactive: dose: 25.0 mg/kg/injection, schedule: Q01DX005 (ip), vehicle: saline 97 % of control | [1] 96 % of control | [2] 113 % of control | [3] 111 % of control

COc1cccc(/C=C2\CCc3ccccc3C2=O)c1OC
inactive: [5] 119 % of control | [7] 106 % of control | [9] 110 % of control

NCCc1c[nH]c2ccc(O)cc12 (tested in a mixture with another compound)
inactive: dose: 50.0 mg/kg/injection, schedule: Q01DX009 (ip), vehicle: other 113 % of control | [15] 102 % of control | dose: 100.0 mg/kg/injection, schedule: Q01DX009 (ip), vehicle: other 109 % of control | [16] 100 % of control | dose: 200.0 mg/kg/injection, schedule: Q01DX009 (ip), vehicle: other 91 % of control | [17] 99 % of control

Cc1cc2c(C(C)C)c(O)c(O)c(C=NCCO)c2c(O)c1-c1c(C)cc2c(C(C)C)c(O)c(O)c(C=NCCO)c2c1O
inactive: dose: 50.0 mg/kg/injection, schedule: Q01DX005 (ip), vehicle: saline with Tween-80 113 % of control | dose: 75.0 mg/kg/injection, schedule: Q01DX005 (ip), vehicle: saline with Tween-80 120 % of control | dose: 100.0 mg/kg/injection, schedule: Q01DX005 (ip), vehicle: saline with Tween-80 120 % of control

c1ccc(-c2cc(-c3cc(-c4ccccn4)[nH]n3)n[nH]2)nc1
inactive: dose: 60.0 mg/kg/injection, schedule: Q01DX005 (ip), vehicle: saline + Tween-80 + alcohol 91 % of control | dose: 120.0 mg/kg/injection, schedule: Q01DX005 (ip), vehicle: saline + Tween-80 + alcohol 94 % of control | dose: 240.0 mg/kg/injection, schedule: Q01DX005 (ip), vehicle: saline + Tween-80 + alcohol 104 % of control

NC1CCNC(O)[N-]1.NC1CCNC(O)[N-]1.[Br][Pd][Br] (stereo unspecified)
inactive: [18] 99 % of control | [19] 100 % of control | [20] 102 % of control
